Counter-ions that a name gives are not always drawn.
Columns and labels:
[1] = target: T1, recombinant human 5-HT6 receptor (Homo sapiens, UniProt P50406); experiment: Radioligand binding, [3H]LSD competition in HEK293 cell membranes; settings: [3H]LSD displacement, pH 7.4, 37° C., approximate value, read-out: pKi for 5-HT6 (converted)
T1 construct: expressed in transfected cells; membranes
Description: (§1) The binding activity of compounds of this invention in vitro was determined as follows. Duplicate determinations of 5-HT6 ligand affinity were made by competing for binding of [^3H]LSD in cell membranes derived from HEK293 cells stably expressing recombinant human 5-HT6 receptor. Duplicate determinations of 5-HT2A ligand affinity were made by competing for binding of [^3H]Ketanserin (3-(2-(4-(4-fluorobenzoyl)piperidinol)ethyl)-2,4(1H,3H)-quinazolinedione) in cell membranes derived from CHO-K1 cells stably expressing recombinant human 5-HT2A receptor. Membranes were prepared from HEK 293 cell lines by the method described by Monsma et al., Molecular Pharmacology, Vol. 43 pp. 320–327 (1993), and from CHO-K1cell lines as described by Bonhaus et al., Br J Pharmacol. Jun; 115(4):622–8 (1995).
(§2) For estimation of affinity at the 5-HT6 receptor, all determinations were made in assay buffer containing 50 mM Tris-HCl, 10 mM MgSO4, 0.5 mM EDTA, 1 mM ascorbic acid, pH 7.4 at 37° C., in a 250 microliter reaction volume. […]
(§3) Assay tubes containing [^3H] […] Bound[^3H]LSD or [^3H]Ketanserin were determined as radioactive counts per minute using Packard TopCount.
(§4) Displacement of [^3H]LSD or [^3H]Ketanserin from the binding sites was quantified by fitting concentration-binding data to a 4-parameter logistic equation: […]

[2] = target: T2, recombinant human 5-HT2A receptor (Homo sapiens, UniProt P28223); experiment: Radioligand binding, [3H]Ketanserin competition in CHO-K1 cell membranes; settings: [3H]Ketanserin displacement, pH 7.4, 32° C., approximate value, read-out: pKi for 5-HT2A (converted)
T2 construct: expressed in transfected cells; membranes
T2 sequence (P28223 whole entry): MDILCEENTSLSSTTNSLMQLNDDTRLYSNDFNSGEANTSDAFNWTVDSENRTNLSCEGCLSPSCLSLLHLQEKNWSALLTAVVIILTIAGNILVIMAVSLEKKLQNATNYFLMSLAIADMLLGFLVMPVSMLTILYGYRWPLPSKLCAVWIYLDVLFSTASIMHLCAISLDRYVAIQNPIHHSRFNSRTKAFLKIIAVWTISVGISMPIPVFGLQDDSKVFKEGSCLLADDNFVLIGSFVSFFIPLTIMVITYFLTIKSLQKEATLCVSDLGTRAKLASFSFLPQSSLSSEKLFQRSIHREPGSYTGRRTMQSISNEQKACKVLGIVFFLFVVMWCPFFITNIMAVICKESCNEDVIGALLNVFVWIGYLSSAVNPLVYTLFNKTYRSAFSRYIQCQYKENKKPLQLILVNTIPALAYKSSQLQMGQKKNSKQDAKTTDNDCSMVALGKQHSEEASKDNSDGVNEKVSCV
Description: as §1, §2, §3, §4

T1 sequence (P50406 whole entry): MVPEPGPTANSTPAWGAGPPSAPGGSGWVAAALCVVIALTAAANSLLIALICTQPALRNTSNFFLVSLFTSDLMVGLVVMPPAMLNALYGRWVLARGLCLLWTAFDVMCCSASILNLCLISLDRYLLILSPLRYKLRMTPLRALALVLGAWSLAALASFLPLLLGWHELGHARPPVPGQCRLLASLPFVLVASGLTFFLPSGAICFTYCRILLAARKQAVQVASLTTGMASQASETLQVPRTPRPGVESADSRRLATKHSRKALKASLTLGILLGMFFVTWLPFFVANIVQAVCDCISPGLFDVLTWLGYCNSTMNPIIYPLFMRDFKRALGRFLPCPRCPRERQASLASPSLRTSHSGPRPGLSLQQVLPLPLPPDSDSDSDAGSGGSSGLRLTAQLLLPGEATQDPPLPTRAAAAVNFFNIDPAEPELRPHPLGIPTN

SMILES	melting point	other results
O=C1c2cccc(N3CCNCC3)c2Oc2ccccc2N1Cc1c[nH]c2ccccc12 [Compound 37, 10-(1H-Indol-3-ylmethyl)-4-piperazin-1-yl-10H-dibenzo[b,f][1,4]oxazepin-11-one]	98 to 99 °C	
O=C1c2cccc(N3CCNCC3)c2Oc2ccc(F)cc2N1Cc1cccc(C(F)(F)F)c1 [Compound 28, 8-Fluoro-4-piperazin-1-yl-10-(3-trifluoromethyl-benzyl)-10H-dibenzo[b,f][1,4]oxazepin-11-one]		Ki [1]: ~0.282 nM
O=C1c2cccc(N3CCNCC3)c2Oc2c(F)cccc2N1CCc1ccccc1 [Compound 26, 6-Fluoro-10-phenethyl-4-piperazin-1-yl-10H-dibenzo[b,f][1,4]oxazepin-11-one,hydrochloride]		Ki [2]: ~1.32 nM
O=C1c2cccc(N3CCNCC3)c2Nc2ccccc2N1Cc1ccccc1 (as salt: HCl) [Compound 13, 10-Benzyl-4-piperazin-1-yl-5,10-dihydro-dibenzo[b,e][1,4]diazepin-11-one]	322 to 323 °C (dec.)	
O=C1c2cccc(N3CCNCC3)c2Oc2ccccc2N1Cc1ccccc1 (as salt: HCl) [Compound 1, 10-Benzyl-4-piperazin-1-yl-10H-dibenzo[b,f][1,4]oxazepin-11-one]	198 to 199 °C	
O=C1c2cccc(N3CCNCC3)c2Sc2ccccc2N1Cc1ccccc1 (as salt: HCl) [Compound 20, 10-Benzyl-4-piperazin-1-yl-10H-dibenzo[b,f][1,4]thiazepin-11-one]	301 to 302 °C	

Reference: patent US7229984B2, “Dibenzoxazepinone derivatives and uses thereof” (Roche Palo Alto LLC, priority 2004, dated 2007)
